{"source": "patent US12290511B2", "about": "“Pharmaceutical preparation containing pyridyl aminoacetic acid compound” (Santen Pharmaceutical Co., Ltd., priority 2017, dated 2025)", "test_system": "patients with primary open angle glaucoma or ocular hypertension resistant to treatment with latanoprost ophthalmic solution", "experiment": "Clinical test: 0.002% (w/v) omidenepag isopropyl eye drop A in patients resistant to latanoprost ophthalmic solution", "assay_type": "in vivo, humans", "procedure": "Examination was conducted on the efficacy of omidenepag isopropyl on patients with inadequate efficacies of other glaucoma or ocular hypertension therapeutic agents.\nOmidenepag isopropyl, polyoxyl 35 castor oil, glycerin, citric acid, sodium citrate, sodium edetate, and benzalkonium chloride were dissolved into purified water to adjust the pH. Thereafter, purified water was added to adjust the total volume, thereby preparing a 0.002% (w/v) omidenepag isopropyl eye drop A.\nPatients with primary open angle glaucoma or ocular hypertension were subjected to a washout period of 1 to 4 weeks, and then received a binocular instillation of 0.005% latanoprost ophthalmic solution in an amount of 1 drop once a day for 8 weeks as an induction phase (week −8 to baseline). The patients with primary open angle glaucoma (21 humans) or ocular hypertension (5 humans) resistant to treatment with latanoprost ophthalmic solution, whose rate of decrease in intraocular pressure from the start of instillation was 15% or less at the end of the induction phase, entered the treatment phase (baseline to week 4), and received a binocular instillation of the above-described 0.002% (w/v) omidenepag isopropyl eye drop A in an amount of 1 drop (about 0.03 mL) once a day for 4 weeks every day.", "data": [{"smiles": "CC(C)OC(=O)CNc1cccc(CN(Cc2ccc(-n3cccn3)cc2)S(=O)(=O)c2cccnc2)n1", "note": "[omidenepag isopropyl, isopropyl (6-{[4-(pyrazol-1-yl)benzyl](pyridin-3-ylsulfonyl)aminomethyl}pyridin-2-ylamino)acetate]", "values": [{"measurement": "intraocular pressure lowering compared with latanoprost instillation", "result": "lowers intraocular pressure to a greater extent than latanoprost instillation"}]}]}
